Measurements from US10533010B2, “Substituted indole Mcl-1 inhibitors” (Vanderbilt University, priority 2014, dated 2020).

What follows are molecules tested against recombinant Mcl-1 (residues 172-327) (Homo sapiens (Human), UniProt Q07820) (assay: Fluorescence polarization anisotropy competition assay (FITC-Bak or FITC-Bim BH3 peptide) with Mcl-1). Conditions: Table 2; Ki bins given in nM; FITC-Bak or FITC-Bim peptide competition; Ki converted from IC50; read-out: Ki for Inhibition of Mcl-1.
recombinant Mcl-1 (residues 172-327), sequence (Q07820 172-327): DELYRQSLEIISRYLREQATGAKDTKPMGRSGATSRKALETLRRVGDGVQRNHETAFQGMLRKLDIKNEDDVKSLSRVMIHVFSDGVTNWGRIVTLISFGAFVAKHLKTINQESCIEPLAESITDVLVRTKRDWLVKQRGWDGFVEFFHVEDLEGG
Assay type: binding
In the case of `Cc1cc(OCCCc2c3n(c4c(-c5c(C)nn(C)c5C)c(Cl)ccc24)CCCN(Cc2cc(C(=O)O)cc(-c4ccc(O)cc4)c2)C3=O)cc(C)c1Cl` [I-306, 5-((8-chloro-1-(3-(4-chloro-3,5-dimethylphenoxy)propyl)-1-oxo-7-(1,3,5-trimethyl-1H-pyrazol-4-yl)-4,5-dihydro-1H-[1,4]diazepino[1,2-a]indol-2(3H)-yl)methyl)-4′-hydroxy-[1,1′-biphenyl]-3-carboxylic acid], the Ki is reported as < 50 nM.
`Cc1cc(OCCCc2c3n(c4c(-c5c(C)nn(C)c5C)c(Cl)ccc24)CCCN(Cc2cc(CCNC(=O)CC(C)C)cc(C(=O)O)c2)C3=O)cc(C)c1Cl` [I-307, 3-((8-chloro-11-(3-(4-chloro-3,5-dimethylphenoxy)propyl)-1-oxo-7-(1,3,5-trimethyl-1H-pyrazol-4-yl)-4,5-dihydro-1H-[1,4]diazepino[1,2-a]indol-2(3H)-yl)methyl)-5-(2-(3-methylbutanamido)ethyl)benzoic acid] was tested, and the Ki was < 50 nM.
Work on `Cc1cc(OCCCc2c3n(c4c(-c5c(C)nn(C)c5C)c(Cl)ccc24)CCCN(Cc2cc(C(=O)O)cc(-c4ccc(OCc5ccccc5C(F)(F)F)cc4)c2)C3=O)cc(C)c1Cl` [I-308, 5-((8-chloro-1-(3-(4-chloro-3,5-dimethylphenoxy)propyl)-1-oxo-7-(1,3,5-trimethyl-1H-pyrazol-4-yl)-4,5-dihydro-1H-[1,4]diazepino[1,2-a]indol-2(3H)-yl)methyl)-4′-((2-(trifluoromethyl)benzyl)oxy)-[1,1′-biphenyl]-3-carboxylic acid] yielded a Ki of 51 to 100 nM.
In the case of `Cc1cc(OCCCc2c3n(c4c(-c5c(C)nn(C)c5C)c(Cl)ccc24)CCCN(Cc2ccc(C(=O)NS(=O)(=O)c4ccc(OCc5ccccc5)cc4)cc2)C3=O)cc(C)c1Cl` [I-309, N-((4-(benzyloxy)phenyl)sulfonyl)-4-((8-chloro-11-(3-(4-chloro-3,5-dimethylphenoxy)propyl)-1-oxo-7-(1,3,5-trimethyl-1H-pyrazol-4-yl)-4,5-dihydro-1H-[1,4]diazepino[1,2-a]indol-2(3H)-yl)methyl)benzamide], the Ki is reported as < 50 nM.
For `Cc1cc(OCCCc2c3n(c4c(-c5c(C)nn(C)c5C)c(Cl)ccc24)CCCN(Cc2ccc(C(=O)NS(=O)(=O)c4ccc(OCc5cccnc5)cc4)cc2)C3=O)cc(C)c1Cl` [I-310, 4-((8-chloro-11-(3-(4-chloro-3,5-dimethylphenoxy)propyl)-1-oxo-7-(1,3,5-trimethyl-1H-pyrazol-4-yl)-4,5-dihydro-1H-[1,4]diazepino[1,2-a]indol-2(3H)-yl)methyl)-N-((4-(pyridin-3-ylmethoxy)phenyl)sulfonyl)benzamide], the Ki was < 50 nM.
`Cc1cc(OCCCc2c3n(c4c(-c5c(C)nn(C)c5C)c(Cl)ccc24)CCCN(Cc2cc(COc4ccccc4C(F)(F)F)cc(C(=O)O)c2)C3=O)cc(C)c1Cl` [I-312, 3-((8-chloro-11-(3-(4-chloro-3,5-dimethylphenoxy)propyl)-1-oxo-7-(1,3,5-trimethyl-1H-pyrazol-4-yl)-4,5-dihydro-1H-[1,4]diazepino[1,2-a]indol-2(3H)-yl)methyl)-5-((2-(trifluoromethyl)phenoxy)methyl)benzoic acid] showed a Ki of 51 to 100 nM.
In the case of `Cc1cc(OCCCc2c(C(=O)Nc3cc[nH]n3)[nH]c3c(-c4c(C)nn(C)c4C)cccc23)cc(C)c1Cl` [I-313, 3-(3-(4-chloro-3,5-dimethylphenoxy)propyl)-N-(1H-pyrazol-3-yl)-7-(1,3,5-trimethyl-1H-pyrazol-4-yl)-1H-indole-2-carboxamide], the Ki is reported as 501 to 999 nM.
`Cc1cc(OCCCc2c(C(=O)N[C@H]3CCC[C@H]3C(=O)O)[nH]c3c(-c4c(C)nn(C)c4C)cccc23)cc(C)c1Cl` [I-314, (1R,2S)-2-(3-(3-(4-chloro-3,5-dimethylphenoxy)propyl)-7-(1,3,5-trimethyl-1H-pyrazol-4-yl)-1H-indole-2-carboxamido)cyclopentane-1-carboxylic acid] was tested, and the Ki was 51 to 100 nM.
`Cc1cc(OCCCc2c(C(=O)N[C@H]3CCCC[C@H]3C(=O)O)[nH]c3c(-c4c(C)nn(C)c4C)cccc23)cc(C)c1Cl` [I-316, (1R,2S)-2-(3-(3-(4-chloro-3,5-dimethylphenoxy)propyl)-7-(1,3,5-trimethyl-1H-pyrazol-4-yl)-1H-indole-2-carboxamido)cyclohexane-1-carboxylic acid] was tested, and the Ki was < 50 nM.
In the case of `Cc1cc(OCCCc2c(C(=O)NC3CCN(C(=O)CC(=O)O)CC3)[nH]c3c(-c4c(C)nn(C)c4C)cccc23)cc(C)c1Cl` [I-318, 3-(4-(3-(3-(4-chloro-3,5-dimethylphenoxy)propyl)-7-(1,3,5-trimethyl-1H-pyrazol-4-yl)-1H-indole-2-carboxamido)piperidin-1-yl)-3-oxopropanoic acid], the Ki is reported as < 50 nM.
For `Cc1cc(OCCCc2c(C(=O)NC3CCN(C(=O)C(=O)O)CC3)[nH]c3c(-c4c(C)nn(C)c4C)cccc23)cc(C)c1Cl` [I-319, 2-(4-(3-(3-(4-chloro-3,5-dimethylphenoxy)propyl)-7-(1,3,5-trimethyl-1H-pyrazol-4-yl)-1H-indole-2-carboxamido)piperidin-1-yl)-2-oxoacetic acid], the Ki was < 50 nM.
In the case of `Cc1cc(OCCCc2c(C(=O)NC3CCN(C(=O)C(=O)O)CC3)[nH]c3c(-c4c(C)nn(C)c4C)c(Cl)ccc23)cc(C)c1Cl` [I-321, 2-(4-(6-chloro-3-(3-(4-chloro-3,5-dimethylphenoxy)propyl)-7-(1,3,5-trimethyl-1H-pyrazol-4-yl)-1H-indole-2-carboxamido)piperidin-1-yl)-2-oxoacetic acid], the Ki is reported as < 50 nM.
For `Cc1cc(OCCCc2c(C(=O)N[C@@H]3CCC[C@@H](C(=O)O)C3)[nH]c3c(-c4c(C)nn(C)c4C)c(Cl)ccc23)cc(C)c1Cl` [I-322, (1R,3R)-3-(6-chloro-3-(3-(4-chloro-3,5-dimethylphenoxy)propyl)-7-(1,3,5-trimethyl-1H-pyrazol-4-yl)-1H-indole-2-carboxamido)cyclohexane-1-carboxylic acid], the Ki was < 50 nM.
`Cc1cc(OCCCc2c(C(=O)N3CC(NC(=O)C(=O)O)C3)[nH]c3c(-c4c(C)nn(C)c4C)c(Cl)ccc23)cc(C)c1Cl` [I-323, 2-((1-(6-chloro-3-(3-(4-chloro-3,5-dimethylphenoxy)propyl)-7-(1,3,5-trimethyl-1H-pyrazol-4-yl)-1H-indole-2-carbonyl)azetidin-3-yl)amino)-2-oxoacetic acid] was tested, and the Ki was < 50 nM.
In the case of `Cc1cc(OCCCc2c(C(=O)NC[C@H]3CC[C@H](C(=O)O)CC3)[nH]c3c(-c4c(C)nn(C)c4C)c(Cl)ccc23)cc(C)c1Cl` [I-324, (1r,4r)-4-((6-chloro-3-(3-(4-chloro-3,5-dimethylphenoxy)propyl)-7-(1,3,5-trimethyl-1H-pyrazol-4-yl)-1H-indole-2-carboxamido)methyl)cyclohexane-1-carboxylic acid], the Ki is reported as < 50 nM.
For `Cc1cc(OCCCc2c(C(=O)N[C@H]3CCN(C(=O)C(=O)O)C3)[nH]c3c(-c4c(C)nn(C)c4C)c(Cl)ccc23)cc(C)c1Cl` [I-325, (S)-2-(3-(6-chloro-3-(3-(4-chloro-3,5-dimethylphenoxy)propyl)-7-(1,3,5-trimethyl-1H-pyrazol-4-yl)-1H-indole-2-carboxamido)pyrrolidin-1-yl)-2-oxoacetic acid], the Ki was < 50 nM.
In the case of `Cc1cc(OCCCc2c(C(=O)N[C@@H]3CCN(C(=O)C(=O)O)C3)[nH]c3c(-c4c(C)nn(C)c4C)c(Cl)ccc23)cc(C)c1Cl` [I-326, (R)-2-(3-(6-chloro-3-(3-(4-chloro-3,5-dimethylphenoxy)propyl)-7-(1,3,5-trimethyl-1H-pyrazol-4-yl)-1H-indole-2-carboxamido)pyrrolidin-1-yl)-2-oxoacetic acid], the Ki is reported as < 50 nM.
In the case of `Cc1cc(OCCCc2c(C(=O)N[C@@H]3CCCN(C(=O)C(=O)O)C3)[nH]c3c(-c4c(C)nn(C)c4C)c(Cl)ccc23)cc(C)c1Cl` [I-327, (R)-2-(3-(6-chloro-3-(3-(4-chloro-3,5-dimethylphenoxy)propyl)-7-(1,3,5-trimethyl-1H-pyrazol-4-yl)-1H-indole-2-carboxamido)piperidin-1-yl)-2-oxoacetic acid], the Ki is reported as < 50 nM.
In the case of `Cc1cc(OCCCc2c3n(c4c(-c5c(C)nn(C)c5C)c(Cl)ccc24)CCCN(Cc2cc(NCCC(C)C)cc(C(=O)O)c2)C3=O)cc(C)c1Cl` [I-328, 3-((8-chloro-11-(3-(4-chloro-3,5-dimethylphenoxy)propyl)-1-oxo-7-(1,3,5-trimethyl-1H-pyrazol-4-yl)-4,5-dihydro-1H-[1,4]diazepino[1,2-a]indol-2(3H)-yl)methyl)-5-(isopentylamino)benzoic acid], the Ki is reported as < 50 nM.
In the case of `Cc1cc(OCCCc2c3n(c4c(-c5c(C)nn(C)c5C)c(Cl)ccc24)CCCN(Cc2cc(C(=O)O)cc(N(C(=O)CC(C)C)C(=O)CC(C)C)c2)C3=O)cc(C)c1Cl` [I-329, 3-((8-chloro-11-(3-(4-chloro-3,5-dimethylphenoxy)propyl)-1-oxo-7-(1,3,5-trimethyl-1H-pyrazol-4-yl)-4,5-dihydro-1H-[1,4]diazepino[1,2-a]indol-2(3H)-yl)methyl)-5-(3-methyl-N-(3-methylbutanoyl)butanamido)benzoic acid], the Ki is reported as < 50 nM.
`Cc1cc(OCCCc2c(C(=O)N[C@H]3CC[C@@H](C(=O)O)C3)[nH]c3c(-c4c(C)nn(C)c4C)c(Cl)ccc23)cc(C)c1Cl` [I-330, (1R,3S)-3-(6-chloro-3-(3-(4-chloro-3,5-dimethylphenoxy)propyl)-7-(1,3,5-trimethyl-1H-pyrazol-4-yl)-1H-indole-2-carboxamido)cyclopentane-1-carboxylic acid] was tested, and the Ki was < 50 nM.
In the case of `Cc1cc(OCCCc2c(C(=O)N[C@H]3CCC[C@@H](C(=O)O)C3)[nH]c3c(-c4c(C)nn(C)c4C)c(Cl)ccc23)cc(C)c1Cl` [I-331, (1R,3S)-3-(6-chloro-3-(3-(4-chloro-3,5-dimethylphenoxy)propyl)-7-(1,3,5-trimethyl-1H-pyrazol-4-yl)-1H-indole-2-carboxamido)cyclohexane-1-carboxylic acid], the Ki is reported as < 50 nM.
For `Cc1cc(OCCCc2c(C(=O)N[C@H]3CC[C@@H](C(=O)O)CC3)[nH]c3c(-c4c(C)nn(C)c4C)c(Cl)ccc23)cc(C)c1Cl` [I-332, (1s,4s)-4-(6-chloro-3-(3-(4-chloro-3,5-dimethylphenoxy)propyl)-7-(1,3,5-trimethyl-1H-pyrazol-4-yl)-1H-indole-2-carboxamido)cyclohexane-1-carboxylic acid], the Ki was < 50 nM.
